The supplement of paper PMC10307832

Legend:
Experiment in all cases: relative viability (nuclei count vs DMSO), 5 days (fraction); higher = more cells survive
[1] = compound: COc1cc2ncn(-c3cc(OCc4ccccc4C(F)(F)F)c(C(N)=O)s3)c2cc1OC
Summary of the method: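 A plate was accepted only when its control CV was below 25% and the cells had doubled at least once. Viability is defined from nuclear counts as treated wells divided by vehicle wells, with the median taken across plates. That median covers lung cancer cell lines grown in 1536-well plates, dosed by pinning at five √10-spaced library-drug concentrations, and counted in MetaXpress from 4× Hoechst images after 5 days.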

[2] = compound: COc1cc2ncn(-c3cc(OCc4ccccc4C(F)(F)F)c(C(N)=O)s3)c2cc1OC + CC1(C)CCC(c2ccc(Cl)cc2)=C(CN2CCN(c3ccc(C(=O)NS(=O)(=O)c4ccc(N[C@H](CCN5CCOCC5)CSc5ccccc5)c(S(=O)(=O)C(F)(F)F)c4)cc3)CC2)C1 [Navitoclax] (partner 0.5 µM)
Summary of the method: (§1)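 Values are medians from duplicate plates. Each reflects relative viability, defined as the nuclei count of treated wells over that of vehicle wells. Lung cancer cell lines in 1536-well plates were pin-tool dosed one day after seeding with one drug alone or with a fixed anchor-drug dose plus five library-drug doses (not always all listed) in √10 steps, then fixed, stained and imaged at 4× after 5 days.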

[3] = compound: COc1cc2ncn(-c3cc(OCc4ccccc4C(F)(F)F)c(C(N)=O)s3)c2cc1OC + Cc1cc(Nc2cc(N3CCN(C)CC3)nc(Sc3ccc(NC(=O)C4CC4)cc3)n2)n[nH]1 [Tozasertib] (partner 0.1 µM)
Summary of the method: as §1

[4] = compound: COc1cc2ncn(-c3cc(OCc4ccccc4C(F)(F)F)c(C(N)=O)s3)c2cc1OC + N=C(N)NC(=N)NCCc1ccccc1 [Phenformin] (partner 250 µM)
Summary of the method: as §1

Cell Line	relative viability ([1]; 0.05 µM)	relative viability ([1]; 0.1581 µM)	relative viability ([1]; 0.5 µM)	relative viability ([1]; 1.581 µM)	relative viability ([1]; 5 µM)	relative viability ([2]; first compound 0.05 µM)	relative viability ([2]; first compound 0.1581 µM)	relative viability ([2]; first compound 0.5 µM)	relative viability ([2]; first compound 1.581 µM)	relative viability ([2]; first compound 5 µM)	relative viability ([3]; first compound 0.05 µM)	relative viability ([3]; first compound 0.1581 µM)	relative viability ([3]; first compound 0.5 µM)	relative viability ([3]; first compound 1.581 µM)	relative viability ([3]; first compound 5 µM)	relative viability ([4]; first compound 0.05 µM)	relative viability ([4]; first compound 0.1581 µM)	relative viability ([4]; first compound 0.5 µM)	relative viability ([4]; first compound 1.581 µM)	relative viability ([4]; first compound 5 µM)
NCI-H1975	1.09	0.902	0.643	0.226	0.17	0.88	1.01	0.529	0.168	0.174	0.677	0.453	0.173	0.138	0.126	0.44	0.392	0.229	0.162	0.113
NCI-H1993	1.1	0.855	0.469	0.605	0.534	1.22	0.912	0.602	0.507	0.503	0.581	0.613	0.566	0.637	0.661	0.474	0.527	0.5	0.495	0.428
NCI-H2009	0.909	0.905	0.472	0.232	0.174	1.14	1.07	0.666	0.0806	0.0608	0.625	0.625	0.353	0.301	0.227	0.436	0.333	0.192	0.124	0.111
NCI-H2023	0.955	1.07	0.566	0.115	0.0893	0.977	1.1	0.867	0.0884	0.0956	0.24	0.341	0.164	0.132	0.0834	0.328	0.395	0.229	0.0904	0.0857
NCI-H2085	0.925	1.03	0.759	0.402	0.407	1.2	1.09	0.593	0.367	0.365	0.761	0.738	0.403	0.407	0.454	0.719	0.725	0.367	0.234	0.251
NCI-H2087	1.08	0.923	0.628	0.135	0.124	1.04	0.974	0.194	0.136	0.134	0.255	0.253	0.144	0.126	0.114	0.51	0.458	0.269	0.111	0.107
NCI-H2126	1.02	1	0.754	0.329	0.236	0.856	0.834	0.662	0.284	0.225	0.756	0.908	0.521	0.218	0.245	0.481	0.579	0.367	0.265	0.261
NCI-H2170	1.01	0.907	0.473	0.202	0.197	0.539	0.492	0.202	0.168	0.162	0.619	0.745	0.309	0.193	0.26	0.444	0.351	0.32	0.195	0.179
